Reference: publication PMC7139824, “Molecular Mechanisms of PARP-1 Inhibitor 7-Methylguanine” (International Journal of Molecular Sciences, 2020)

Assays:
[1] = biological target: T1, poly(ADP-ribose) polymerase 1 (PARP-1) (Homo sapiens, UniProt P09874); test: real-time fluorescence anisotropy activity assay, purified PARP-1 with DNA duplex; competitive kinetics vs NAD+; format: biochemical
T1 construct: gene PARP1

[2] = biological target: T1, poly(ADP-ribose) polymerase 1 (PARP-1); test: fluorescence anisotropy kinetics, reaction rate vs NAD+ concentration ([…]); format: biochemical

T1 sequence (P09874 2-1014): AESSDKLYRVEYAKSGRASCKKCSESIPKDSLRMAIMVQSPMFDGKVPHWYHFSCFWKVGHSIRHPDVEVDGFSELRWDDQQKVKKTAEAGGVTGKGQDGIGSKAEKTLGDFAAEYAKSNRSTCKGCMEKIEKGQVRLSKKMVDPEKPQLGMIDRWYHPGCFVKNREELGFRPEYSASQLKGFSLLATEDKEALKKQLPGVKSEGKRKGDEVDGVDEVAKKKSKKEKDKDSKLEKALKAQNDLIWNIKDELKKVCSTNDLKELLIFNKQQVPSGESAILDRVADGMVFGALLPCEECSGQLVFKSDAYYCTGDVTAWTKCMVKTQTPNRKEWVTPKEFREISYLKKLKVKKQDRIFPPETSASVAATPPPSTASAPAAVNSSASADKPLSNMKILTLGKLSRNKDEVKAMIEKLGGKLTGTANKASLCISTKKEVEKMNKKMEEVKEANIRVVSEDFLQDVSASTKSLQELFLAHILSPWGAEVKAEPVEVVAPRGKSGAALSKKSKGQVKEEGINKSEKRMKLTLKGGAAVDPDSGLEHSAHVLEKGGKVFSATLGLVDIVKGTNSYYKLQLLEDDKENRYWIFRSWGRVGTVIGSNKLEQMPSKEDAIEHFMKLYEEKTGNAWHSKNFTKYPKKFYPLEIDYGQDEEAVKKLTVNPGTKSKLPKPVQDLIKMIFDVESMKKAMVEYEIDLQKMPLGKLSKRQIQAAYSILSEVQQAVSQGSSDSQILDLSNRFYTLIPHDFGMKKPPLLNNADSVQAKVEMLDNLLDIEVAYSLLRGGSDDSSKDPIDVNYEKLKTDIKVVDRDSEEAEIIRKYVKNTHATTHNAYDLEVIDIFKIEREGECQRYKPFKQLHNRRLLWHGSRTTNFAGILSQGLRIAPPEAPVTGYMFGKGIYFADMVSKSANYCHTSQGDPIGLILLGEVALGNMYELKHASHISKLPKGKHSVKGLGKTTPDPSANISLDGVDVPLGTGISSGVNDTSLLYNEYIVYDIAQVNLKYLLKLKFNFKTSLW

Cn1cnc2nc(N)[nH]c(=O)c21 [7-MG, 7-methylguanine]
Ki [1]: 61 ± 9 µM

NC(=O)c1ccc[n+]([C@@H]2O[C@H](COP(=O)([O-])OP(=O)(O)OC[C@H]3O[C@@H](n4cnc5c(N)ncnc54)[C@H](O)[C@@H]3O)[C@@H](O)[C@H]2O)c1 [NAD^+]
fluorescence anisotropy kinetics, reaction rate vs NAD+ concentration (0-2500 μM) [2]: Dependence of the PARP-1-catalyzed reaction rate on the NAD^+ concentration at different concentrations of 7-MG
